{"source": "patent US20040253718A1", "about": "“Methods of producing neurons” (priority 2003, published 2004)", "key": {"[1]": {"tested_on": "UMC from skin and adipose tissue", "assay": "Culture of non-adherent UMC from skin and adipose tissue", "assay_type": "cell-based, human", "method": "Cells were harvested and enriched in vitro for UMC by initiation of cultures from a skin biopsy obtained from a normal healthy human volunteer as follows. Biopsies of about 10 to about 200 mm^3 were obtained from the post auriculum area, and fibroblast tissue culture initiated as described above using DMEM containing 4500 mg/L D-glucose, 2 mM L-glutamine, nonessential amino acids, and 10% FBS. Colonies of non-adherent, actively growing cells were observed after adherent fibroblasts had reached full confluence in passage two or three. This process could be shortened by initiation of the culture in low serum and by the presence of 5 ng/ml aFGF, or by growth of the cells in a plasma clot directly from tissue (see Example 2) with addition of 300 mM CaCl2 to a final concentration of 15 mM. […] The colonies were collected by aspiration of culture medium containing the floating colonies and centrifugation of this medium. The cells pelleted by centrifugation were transferred to new tissue culture vessels by direct seeding in fresh culture medium containing aFGF and heparin (DMEM containing 4500 mg/L D-glucose, 2 mM L-glutamine, 2.5% heat inactivated FBS, 5 ng/mL recombinant human aFGF, and 5 μg/mL heparin). The cell suspension was added to fresh tissue culture flasks, which were incubated at 37° C. […]"}, "dermal-derived UMC": {"tested_on": "dermal-derived UMC", "assay": "Culture of UMC in plasma clots to generate neurons", "assay_type": "cell-based, human", "settings": "aFGF as the only growth factor in the culture medium", "method": "The presence of higher concentration of Ca^2+ than normally present in culture medium (i.e., about 2 mM) was essential for growth of neurons in the plasma clot UMC cultures.\nLyophilized bovine plasma (Sigma Aldrich Co., St. Louis, Mo.; Cat. No. P-4639) was reconstituted with an appropriate volume of tissue culture medium not containing heparin, e.g., DMEM or Neurobasal medium (see above). An appropriate volume of a stock solution of CaCl2 (e.g., 300 mM) was added to a series of plastic tissue culture dishes (one set having a diameter of 30 mm and another set having a diameter of 60 mm) so as to give a final concentration of 15 mM after addition of plasma. Plasma was added to the culture dishes (1 ml to 30 mm dishes and 2 ml to the 60 mm dishes), which were swirled in order to mix the CaCl2 and plasma. […]\nThe dishes were then incubated at room temperature or 37° C. until the plasma had clotted. […] The dishes were then stored in a tissue culture incubator at 37° C. in at atmosphere of 10% CO2 until ready for use. A small quantity (about 5 cells to about 10^5 cells per clot) of dermal-derived UMC prepared as described in Example 1 was added to each dish and the cells were allowed to settle onto each clot. […]"}}}
{"substance": "aFGF: recombinant human acidic fibroblast growth factor", "values": [{"measurement": "morphology of cells in culture", "setting": "[1]; in the presence of aFGF", "value": "morphologically homogeneous in appearance and had a cobblestone-like morphology"}, {"measurement": "fate of cells in culture", "setting": "[1]; upon removal of aFGF from the culture medium", "value": "most of the cells fully differentiated into adherent fibroblasts"}, {"measurement": "growth of human neurons", "setting": "dermal-derived UMC", "value": "Enhanced growth"}]}
